Experimental data reported in publication PMC9818988, “SR Protein Kinase 1 Inhibition by TAF15” (Cells, 2022).
Each block holds one molecule with its values, some of them ahead of it.

Experiments:
[1] = test system: SRPK1; experiment: Pull-down of SRPK1 from HeLa cell extracts with immobilized GST-TAF15 fusion proteins; type: binding; details: 150 mM NaCl, 1% Triton X-100, 60 min, room temperature; Western blot with anti-SRPK1
Protocol: Incubation of GST, GST-TAF15, GST-TAF15(1–320), and GST-TAF15-RGG (2–3 μg each) immobilized on glutathione-Sepharose beads with HeLa cell extracts (∼200 μg of total protein) was performed in 50 mm Tris-HCl, pH 7.5, 150 mm NaCl, 1% Triton X-100, and 0.5 mm PMSF (cell extraction buffer) in a total volume of 0.5 mL for 60 min at room temperature. Bound SRPK1 was analyzed on 10% SDS-polyacrylamide gels and detected by Western blotting using the anti-SRPK1 monoclonal antibody (611072, BD Biosciences, San Jose, CA, USA), an alkaline phosphatase-coupled goat anti-mouse secondary antibody, and a 5-bromo-4-chloro-3-indolyl phosphate/nitro blue tetrazolium substrate.

[2] = test system: SRPK1; experiment: In vitro kinase inhibition assay: phosphorylation of GST-LBRNt(62–92) by GST-SRPK1; type: biochemical; details: for Effect of TAF15 fusion proteins on SRPK1 activity (phosphorylation of GST-LBRNt(62–92)): 1, 2, 4, 6, 8 μg GST-TAF15, 1.5, 3, 6, 10, 15 μg GST-TAF15-RGG, 2, 4, 8, 12, 16 μg GST-TAF15(1-320), 25 μL, [γ-32P]ATP, Cherenkof counting, two independent experiments; for Effect of TAF15 fusion proteins on SRPK1 activity (phosphorylation of GST-LBRNt(62–92)) / Inhibition of SRPK1 activity (phosphorylation of GST-LBRNt(62–92) by GST-SRPK1): 30 °C, 30 min; for Inhibition of SRPK1 activity (phosphorylation of GST-LBRNt(62–92) by GST-SRPK1): peptide 0.1, 0.2, 0.3, 0.4 and 0.5 mM, 25 μM ATP, autoradiography, bands counted, means ± SE of two independent experiments (Figure 8); for Relative inhibitory activity on SRPK1 among the three RGG peptides (proportional to number of RGG repeats): peptide 0.1–0.5 mM, substrate GST-LBRNt(62–92), two independent experiments (Figure 8B)
Protocol: (§1) Kinase assays were carried out at 30 °C in a total volume of 25 μL containing 12 mM Hepes pH 7.5, 10 mM MgCl2, 25 μM ATP, 1–3 μg of the appropriate substrate (GST-LBRNt(62–92) or GST-TAF15 or His-TAF15), and 1–2 μg GST-SRPK1. For the inhibition assays, GST-SRPK1 was incubated with GST-LBRNt(62–92) under the assay conditions in the presence of increasing concentrations of GST-TAF15, GST-TAF15-RGG, and GST-TAF15(1–320) or Nucl, SAFA, and A2B1 peptides, as indicated. Nucl ([…]), SAFA ([…]) and A2B1 ([…]) peptides, comprising the RGG repeats of nucleolin, HNRPU (SAFA), and HNRNPA2B1, respectively, were provided by GeneCust, Boynes, France. The samples were incubated for 30 min, and the reaction was stopped by adding 6 μL of 5 × SDS sample buffer and heating at 95 °C for 3 min. Phosphoproteins were detected via autoradiography using Super RX (a Fuji medical X-ray film), and signals were quantified by excising the radioactive bands from the gel and scintillation counting. p-values were determined using a two-tailed, unpaired student’s t-test.

[3] = test system: SRPK1; experiment: In vitro phosphorylation of TAF15 as substrate by GST-SRPK1; type: biochemical; details: bacterially produced GST-SRPK1; GST-LBRNt(62–92) as positive substrate; autoradiography
Protocol: as §1

[4] = test system: SRPK1; experiment: Pull-down of His-TAF15 with GST-SRPK1 immobilized on glutathione-Sepharose beads; type: binding; details: 60 min, room temperature, Coomassie blue staining
Protocol: Incubation of GST and GST-SRPK1 (2–3 μg each) immobilized on glutathione-Sepharose beads with His-TAF15 (2 μg) was performed in 20 mm Hepes, pH 7.5, 50 mM NaCl, and 1% Triton X-100 in a total volume of 0.5 mL. Similar incubations were also performed in the presence of 150 and 300 mM NaCl to test the stringency of the interaction. The incubations were carried out for 60 min at room temperature. The beads were harvested, washed three times with 500 μL of binding buffer, and resuspended in 25 μL of SDS sample buffer. Bound His-TAF15 was analyzed on 10% SDS-polyacrylamide gels and detected by Coomassie Blue staining.

Molecule: GST-TAF15-RGG: C-terminal RGG domain (aa 319–589) of TAF15 as GST-fusion protein
Binding of SRPK1 from HeLa cell extracts to immobilized GST fusion protein [1]: could bind to SRPK1
Effect of TAF15 fusion proteins on SRPK1 activity (phosphorylation of GST-LBRNt(62–92)) [2]: inhibited SRPK1 as potently as full-length TAF15

Molecule: GST-TAF15: full-length TAF15 as GST-fusion protein produced in bacteria
Effect of TAF15 fusion proteins on SRPK1 activity (phosphorylation of GST-LBRNt(62–92)) [2]: inhibited the phosphorylation of GST-LBRNt(62–92) in a dose-responsive manner
Phosphorylation of TAF15 by SRPK1 (substrate test) [3]: did not modify

Molecule: His-TAF15: full-length TAF15 with an 8xHis tag fused to its N-terminus
Binding of TAF15 to GST-SRPK1 in pull-down ([4]; increased salt, 0.3 M NaCl): reduced binding
Binding of TAF15 to GST-SRPK1 in pull-down ([4]; physiological ionic strength, 50–150 mM NaCl): binds SRPK1
Phosphorylation of TAF15 by SRPK1 (substrate test) [3]: unable to phosphorylate

Molecule: RGGNFGFGDSRGGGGNFGPGPGSNFRGG [A2B1, peptide comprising the RGG repeats of HNRNPA2B1, provided by GeneCust]
Inhibition of SRPK1 activity (phosphorylation of GST-LBRNt(62–92) by GST-SRPK1) [2]: could inhibit SRPK1
Relative inhibitory activity on SRPK1 among the three RGG peptides (proportional to number of RGG repeats) [2]: weaker

B1: GST-TAF15(1–320): N-terminal part (aa 1–320) of TAF15 as GST-fusion protein (protein)
chain: MSDSGSYGQSGGEQQSYSTYGNPGSQGYGQASQSYSGYGQTTDSSYGQNYSGYSSYGQSYSQSYGGYENQKQSSYSQQPYNNQGQQQNMESSGSQGGRAPSYDQPDYGQQDSYDQQSGYDQHQGSYDEQSNYDQQHDSYSQNQQSYHSQRENYSHHTQDDRRDVSRYGEDNRGYGGSQGGGRGRGGYDKDGRGPMTGSSGGDRGGFKNFGGHRDYGPRTDADSESDNSDNNTIFVQGLGEGVSTDQVGEFFKQIGIIKTNKKTGKPMINLYTDKDTGKPKGEATVSFDDPPSAKAAIDWFDGKEFHGNIIKVSFATRRPE
modifications: left off: GST, end not stated, kept
notes: N-terminal part (aa 1–320) of TAF15 as GST-fusion protein
Binding of SRPK1 from HeLa cell extracts to immobilized GST fusion protein [1]: no such interaction
Effect of TAF15 fusion proteins on SRPK1 activity (phosphorylation of GST-LBRNt(62–92)) [2]: did not affect the kinase activity
Effect of TAF15 fusion proteins on SRPK1 activity (phosphorylation of GST-LBRNt(62–92)) ([2]; listed as GST-TAF15(1-320)): has no effect on SRPK1 activity

Next, values leading:

Inhibition of SRPK1 activity (phosphorylation of GST-LBRNt(62–92) by GST-SRPK1) [2]: could inhibit SRPK1
Molecule: RGGGHRGRGGFNMRGGNFRGGAPGNRGGY [SAFA, peptide comprising the RGG repeats of HNRPU (SAFA), provided by GeneCust]

Inhibition of SRPK1 activity (phosphorylation of GST-LBRNt(62–92) by GST-SRPK1) [2]: could inhibit SRPK1
Relative inhibitory activity on SRPK1 among the three RGG peptides (proportional to number of RGG repeats) [2]: most potent inhibitory activity
Molecule: RGGGRGGFGGRGGGRGGRGGFGGRGRGGFGGRGGFRGGRGG [Nucl, peptide comprising the RGG repeats of nucleolin, provided by GeneCust]
